According to US20130102618A1, “3-AMINO-5,6-DIHYDRO-1H-PYRAZIN-2-ONE DERIVATIVES USEFUL FOR THE TREATMENT OF ALZHEIMER'S DISEASE AND OTHER FORMS OF DEMENTIA” (JANSSEN PHARMACEUTICA NV, priority 2010, published 2013):

Experiments:
[1] = molecular target: T1, recombinant BACE1 protein (Homo sapiens, UniProt P56817); assay: Biochemical FRET based assay; conditions: recombinant BACE1 1 μg/ml, APP-derived Swedish-mutation peptide substrate, 120 minutes, room temperature, pH 5.0; read-out: Biochemical FRET based assay pIC50 (converted)
T1 construct: recombinant BACE1 protein in a final concentration of 1 μg/ml
Excerpt: This assay is a Fluorescence Resonance Energy Transfer Assay (FRET) based assay. The substrate for this assay is an APP derived 13 amino acids peptide that contains the ‘Swedish’ Lys-Met/Asn-Leu mutation of the amyloid precursor protein (APP) β-secretase cleavage site. This substrate also contains two fluorophores: (7-methoxy-coumarin-4-yl)acetic acid (Mca) is a fluorescent donor with excitation wavelength at 320 nm and emission at 405 nm and 2,4-Dinitrophenyl (Dnp) is a proprietary quencher acceptor. […] Upon cleavage by BACE1, the fluorophore Mca is separated from the quenching group Dnp, restoring the full fluorescence yield of the donor. The increase in fluorescence is linearly related to the rate of proteolysis (Koike H et al. J Biochem. 1999, 126, 235-42).
Briefly in a 384-well format recombinant BACE1 protein in a final concentration of 1 μg/ml is incubated for 120 minutes at room temperature with 10 μm substrate in incubation buffer (40 mM Citrate buffer pH 5.0, 0.04% PEG, 4% DMSO) in the absence or presence of compound. Next the amount of proteolysis is directly measured by fluorescence measurement at T=0 and T=120 (excitation at 320 nm and emission at 405 nm). Results are expressed in RFU, as difference between T120 and T0.
A best-fit curve is fitted by a minimum sum of squares method to the plot of % Controlmin versus compound concentration. From this an […] value (inhibitory concentration causing 50% inhibition of activity) can be obtained.

[2] = tested on: Aβ42 produced and secreted into the medium of human neuroblastoma SKNBE2 cells; assay: Cellular αlisa assay in SKNBE2 cells, Aβ42; format: cell-based; conditions: SKNBE2 expressing wild type hAPP695, incubated for 18 hours, read-out: Cellular αlisa assay in SKNBE2 cells Aβ42 pIC50 (converted)
Procedure: (§1) In two αlisa assays the levels of Aβtotal and Aβ42 produced and secreted into the medium of human neuroblastoma SKNBE2 cells are quantified. The assay is based on the human neuroblastoma SKNBE2 expressing the wild type Amyloid Precursor Protein (hAPP695). The compounds are diluted and added to these cells, incubated for 18 hours and then measurements of Aβ42 and Aβtotal are taken. Aβtotal and Aβ42 are measured by sandwich αlisa. αlisa is a sandwich assay using biotinylated antibody AbN/25 attached to streptavidin coated beads and antibody Ab4G8 or cAb42/26 conjugated acceptor beads for the detection of Aβtotal and Aβ42 respectively. In the presence of Aβtotal or Aβ42, the beads come into close proximity. The excitation of the Donor beads provokes the release of singlet oxygen molecules that triggers a cascade of energy transfer in the Acceptor beads, resulting in light emission. Light emission is measured after 1 hour incubation (excitation at […] and emission at 615 nm).
(§2) A best-fit curve is fitted by a minimum sum of squares method to the plot of % Controlmin versus compound concentration. From this an IC50 value (inhibitory concentration causing 50% inhibition of activity) can be obtained.

[3] = tested on: Aβtotal produced and secreted into the medium of human neuroblastoma SKNBE2 cells; assay: Cellular αlisa assay in SKNBE2 cells, Aβtotal; format: cell-based; conditions: SKNBE2 expressing wild type hAPP695, incubated for 18 hours, read-out: Cellular αlisa assay in SKNBE2 cells Aβtotal pIC50 (converted)
Procedure: as §1, §2

T1 sequence (P56817 46-501): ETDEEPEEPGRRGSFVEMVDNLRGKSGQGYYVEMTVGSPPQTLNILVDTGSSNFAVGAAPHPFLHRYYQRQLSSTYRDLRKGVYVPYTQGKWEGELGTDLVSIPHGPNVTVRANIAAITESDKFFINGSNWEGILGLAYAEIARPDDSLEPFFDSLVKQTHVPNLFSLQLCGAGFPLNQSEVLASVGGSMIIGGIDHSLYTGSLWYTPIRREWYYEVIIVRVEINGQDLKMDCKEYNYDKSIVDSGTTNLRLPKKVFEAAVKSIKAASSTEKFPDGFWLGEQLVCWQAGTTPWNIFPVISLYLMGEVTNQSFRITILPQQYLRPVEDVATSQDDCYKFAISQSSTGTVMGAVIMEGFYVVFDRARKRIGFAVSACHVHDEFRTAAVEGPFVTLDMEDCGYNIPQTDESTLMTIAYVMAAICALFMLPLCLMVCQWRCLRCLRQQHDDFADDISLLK

CN1CC(C)(c2cccc(-c3cccc(C#N)c3)c2)N=C(N)C1=O (stereo not drawn) [compound 1]
IC50 [1]: 27.5 µM
IC50 [2]: 7.08 µM
IC50 [3]: 5.75 µM
melting point: 218.6 °C

CN1CC(C)(c2cc(-c3cncnc3)c(F)cc2F)N=C(N)C1=O (stereo not drawn) [compound 10]
IC50 [1]: > 30.2 µM
IC50 [2]: > 10 µM
IC50 [3]: > 10 µM
melting point: 145.2 °C

CN1CC(C)(c2cc(-c3ccccc3)c(F)cc2F)N=C(N)C1=O (stereo not drawn) [compound 6]
IC50 [1]: > 30.2 µM
IC50 [2]: > 10 µM
IC50 [3]: > 10 µM
melting point: 141.5 °C

COc1cncc(-c2cccc(C3(C)CN(C)C(=O)C(N)=N3)c2)c1 (stereo not drawn) [compound 2]
IC50 [1]: 15.5 µM
IC50 [2]: 7.94 µM
IC50 [3]: 5.75 µM
melting point: 230.4 °C

COc1cncc(-c2cc(C3(C)CN(C)C(=O)C(N)=N3)c(F)cc2F)c1 (stereo not drawn) [compound 7]
IC50 [1]: 7.59 µM
IC50 [2]: 4.47 µM
IC50 [3]: 4.07 µM
melting point: 180.5 °C

CN1CC(C)(c2cccc(-c3cncnc3)c2)N=C(N)C1=O (stereo not drawn) [compound 16]
IC50 [1]: > 30.2 µM
IC50 [2]: > 10 µM
IC50 [3]: > 10 µM
melting point: 234.6 °C

CN1CC(C)(c2cccc(NC(=O)c3ccc(Cl)cn3)c2)N=C(N)C1=O (stereo not drawn) [compound 3]
IC50 [1]: 0.457 µM
IC50 [2]: 0.115 µM
IC50 [3]: 0.107 µM
